Consider 14 molecules from PubChem BioAssay (NCI).

Molecules are shown by their SMILES.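 These data come from cells grown in 96-well plates and exposed to compound for 48 hours at five concentrations. GI50 = concentration required for 50% inhibition of growth. TGI is the concentration that stops growth completely.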 Where only a bound is given, the exact number is not on record here.

Holding throughout (assay): inhibition of tumour cell growth, NCI panel, 48 h
For assay [1], the system named is A498 renal.
Assay [2] relates to A549 NSCLC.
Assay [3] relates to HCC-2998 colon.
Assay [4] deals with HOP-92 NSCLC.
The subject of assay [5] is OVCAR-3 ovarian.
The subject of assay [6] is OVCAR-4 ovarian.
Assay [7] relates to SW-620 colon.
Assay [8] deals with U251 CNS.
Assay [9] relates to UO-31 renal.
The subject of assay [10] is T-47D breast.

With `Cc1cc2c(c(C(N)=O)c1C)-c1cccc(F)c1C2=O`, the TGI in [1], in assay [2], in assay [3], in assay [4], in [5] and in assay [6] was above 100 µM each time. For the same molecule, the TGI in assay [7], in [8] and in [9] was above 100 µM in each case.
In the case of `CCO/C=C1\N=C(c2ccc(Cl)c(Cl)c2)OC1=O`, the TGI in assay [1], in assay [2], in assay [3], in assay [4], in assay [5] and in assay [6] was above 100 µM each time. The TGI in assay [7] and in [9] was above 100 µM throughout.
For the molecule `O=C1C2C(C(=O)N1c1ccccc1)C1c3ccccc3C2C2C(=O)N(c3ccccc3)C(=O)C21` (stereo not given), the TGI in assay [1] was above 100 µM; in assay [2], above 100 µM; in [3] it was 24.7 µM; in assay [4], above 100 µM; in assay [5], above 100 µM; in [6], above 100 µM. Besides, the TGI is above 100 µM in assay [7], 11.5 µM in [8] and above 100 µM in assay [9].
With `COc1ccccc1N=Nc1c(-c2ccccc2)nn(C(=O)CC(=O)Nc2cccc(C)c2)c1-c1ccccc1`, the TGI in [1] is above 100 µM; in assay [2] it was above 100 µM; in assay [3] it was above 100 µM; in assay [5], 53.9 µM; in assay [6], above 100 µM; in [7], above 100 µM. Also, the TGI in [8] and in assay [9] was above 100 µM in each case.
Regarding `COC(=O)CCC(NC(=S)N/N=C(\C)c1ccc[nH]1)C(=O)OC` (stereo not given), the TGI in assay [1], in assay [2], in [3], in assay [4], in assay [5] and in assay [6] was above 100 µM throughout. The TGI in assay [7], in assay [8] and in assay [9] was above 100 µM each time.
In the case of `COc1ccc(-c2cc(=O)n(-c3nc4ccccc4[nH]3)[nH]2)cc1OC`, the GI50 in assay [1] is 2330 nM; in assay [2], 4.72 µM; in assay [3], 16.1 µM; in [5], 12.9 µM; in assay [6], 7.9 µM; in assay [7] it was 3.41 µM. In addition, the figures for the GI50 in [8] and in assay [9] were 4.2 µM and 3.2 µM, respectively. The TGI is 8.72 µM in assay [1]; 81.9 µM in assay [2]; above 100 µM in assay [3]; above 100 µM in assay [5]; above 100 µM in [6]; above 100 µM in assay [7]. The results for the TGI in assay [8] and in assay [9] were above 100 µM and 18.6 µM, respectively.
Consider `CC(C)C1CO[C@]2(C)CCC(=O)N12` (stereo not given in full), for which the TGI in assay [2], in [4], in assay [5], in assay [6], in assay [7] and in assay [8] was above 100 µM each time. Also, the TGI in assay [9] was above 100 µM.
Take `N#C/C(=C1\SCC(=O)N1c1ccccc1)c1nc2ccccc2[nH]1`: the TGI in assay [1], in assay [2], in assay [4], in assay [5], in assay [6] and in assay [7] was above 100 µM throughout. Moreover, the TGI in assay [8] and in [9] was above 100 µM in each case.
In the case of `O=c1cc(-c2ccccn2)[nH]c2cccc(F)c12`, the TGI in assay [2], in assay [3], in assay [4], in assay [5], in assay [6] and in [7] was above 100 µM throughout. Further, in [9], the TGI is above 100 µM.
In the case of `CCOC(=O)NC(=O)c1cn(CCN2CCN(C(=O)CNC(=O)CNC(=O)Cn3cc(C(=O)NC(=O)OCC)c(=O)[nH]c3=O)CC2)c(=O)[nH]c1=O`, the TGI in assay [1], in assay [2], in [3], in [4], in [5] and in assay [7] was above 100 µM each time. In addition, the TGI in assay [8] and in assay [9] was above 100 µM each time.
In the case of `O=C(Oc1cccc(Cl)c1)c1ccccc1Nc1ccnc(C(F)(F)F)c1`, the GI50 in [2] is 18.1 µM; in [3], 3.46 µM; in assay [4] it was 8.74 µM; in [5], 3.8 µM; in assay [7], 4.33 µM; in assay [9], 23.5 µM. In addition, the TGI in [2] was 55.1 µM; in assay [3], 6.66 µM; in assay [4], 32.1 µM; in [5] it was 18.1 µM; in assay [7], 23.3 µM; in assay [9], above 100 µM.
For the molecule `Cc1ccc(S(=O)(=O)N/N=C(\c2nc3ccc(Cl)cc3[nH]c2=O)C(O)c2ccco2)cc1` (stereo not given), the TGI in assay [1], in [2], in assay [3], in assay [4], in [5] and in assay [6] was above 100 µM in each case. In assay [7], this molecule returned a TGI above 100 µM.
Take `COc1cc(CNc2nc3c(N)cc(C(F)(F)F)cc3nc2-c2ccccc2)cc(OC)c1OC`: the TGI in assay [1], in assay [2], in assay [3], in [4], in assay [5] and in [6] was above 100 µM in each case. For the same molecule, the TGI in assay [7] was above 100 µM; in assay [8], above 100 µM; in assay [9] it was 85.5 µM.
Turning to `COc1cc(/C=C/c2ccc(C)cc2)cc(OC)c1OC`, the TGI in assay [2] is 70.1 µM; in [4], 25.5 µM; in assay [5], 6.93 µM; in assay [6] it was 44.7 µM; in assay [7] it was above 68.6 µM; in [10], 20.6 µM. For the same molecule, the TGI in [8] amounted to 23.9 µM; in assay [9], 23.6 µM.
